Measured values: patent US9776972B2, “Pyrazole derivatives as arginine methyltransferase inhibitors and uses thereof” (priority 2013, dated 2017)
Structures can show the parent of a compound that is named as a salt. Where two headings read alike, the source gives them in different places.

Key:
human PRMT1 = target: T1, human PRMT1 (Homo sapiens, UniProt Q99873); assay: PRMT1 Biochemical Assay (3H-SAM Flashplate, peptide substrate)
T1 construct: GST-tagged PRMT1; made in house; host or cells: High Five insect cells (baculovirus)
From the text: (§1) S-adenosylmethionine (SAM), S-adenosylhomocysteine (SAH), bicine, Tween20, dimethylsulfoxide (DMSO), bovine skin gelatin (BSG), and Tris(2-carboxyethyl)phosphine hydrochloride solution (TCEP) were purchased from Sigma-Aldrich at the highest level of purity possible. ^3H-SAM was purchase from American Radiolabeled Chemicals with a specific activity of 80 Ci/mmol. 384-well streptavidin Flashplates were purchased from PerkinElmer.
Recombinant baculovirus were generated according to Bac-to-Bac kit instructions (Life Technologies). […] Infections were carried out at 27° C. for 48 hours, harvested by centrifugation, and stored at −80° C. for purification.
GST-tagged PRMT1 was eluted with 50 mM Tris, 2 mM glutathione, pH 7.8, dialysed in buffer A and concentrated to 1 mg/mL.
General Procedure for PRMT1 Enzyme Assays on Peptide Substrates.
(§2) The assays were all performed in a buffer consisting of 20 mM Bicine (pH=7.6), 1 mM TCEP, 0.005% BSG, and 0.002% Tween 20, prepared on the day of use. […] DMSO (1 ul) was added to Columns 11, 12, 23, 24, rows A-H for the maximum signal control and 1 ul of SAH, a known product and inhibitor of PRMT1, was added to columns 11, 12, 23, 24, rows I-P for the minimum signal control. A cocktail (40 ul) containing the PRMT1 enzyme was added by Multidrop Combi (Thermo-Fisher). The compounds were allowed to incubate with PRMT1 for 30 min at room temperature, then a cocktail (10 ul) containing SAM and peptide was added to initiate the reaction (final volume=51 ul). […] The assays were stopped by the addition of non-radiolabeled SAM (10 ul) to a final concentration of 300 uM, which dilutes the ^3H-SAM to a level where its incorporation into the peptide substrate is no longer detectable. 50 ul of the reaction in the 384-well polypropylene plate was then transferred to a 384-well Flashplate and the biotinylated peptides were allowed to bind to the streptavidin surface for at least 1 hour before being washed once with 0.1% Tween20 in a Biotek ELx405 plate washer. The plates were then read in a PerkinElmer TopCount plate reader to measure the quantity of ^3H-labeled peptide bound to the Flashplate surface, measured as disintegrations per minute (dpm) or alternatively, referred to as counts per minute (cpm).
(§3) Where dpm=disintegrations per minute, cmpd=signal in assay well, and min and max are the respective minimum and maximum signal controls.
(§4) Where top and bottom are the normally allowed to float, but may be fixed at 100 or 0 respectively in a 3-parameter fit. The Hill Coefficient normally allowed to float but may also be fixed at 1 in a 3-parameter fit. Y is the % inhibition and X is the compound concentration.

human PRMT6 = target: T2, human PRMT6 (Homo sapiens, UniProt Q96LA8); assay: PRMT6 Biochemical Assay (3H-SAM Flashplate, peptide substrate)
T2 construct: Flag-PRMT6-His; made in house; host or cells: HEK 293F cells (BacMam baculovirus)
From the text: as §1, with “(BSG), sodium butyrate” for “(BSG),”
Peptide representative of human histone H4 residues 36-50 was synthesized with an N-terminal linker-affinity tag motif and a C-terminal amide cap by 21st Century Biochemicals.
The amplified gene was subcloned into pFastBacMam (Viva Biotech).
Recombinant baculovirus were generated according to Bac-to-Bac kit instructions (Life Technologies). […] Infections were carried out at 37° C. for 48 hours, harvested by centrifugation, and stored at −80° C. for purification.
Column was washed with 20 mM imidazole in the same buffer and Flag-PRMT6-His was eluted with 150 mM imidazole. […] Flag-PRMT6-His was eluted with 200 ug/ml FLAG peptide in the same buffer. Pooled fractions were dialysed in 20 mM Tris, 150 mM NaCl, 10% glycerol and 5 mM β-mercaptoethanol, pH 7.8.
General Procedure for PRMT6 Enzyme Assays on Peptide Substrates.
as §2, with “PRMT6,” for “PRMT1,”, “PRMT6” for “PRMT1”, “400” for “300”
as §3, §4

[1] = single experiment or average of multiple experiments
[2] = Biochemical IC50 PRMT6, single experiment or average of multiple experiments

T2 sequence (Q96LA8 with tags, fused parts or gaps): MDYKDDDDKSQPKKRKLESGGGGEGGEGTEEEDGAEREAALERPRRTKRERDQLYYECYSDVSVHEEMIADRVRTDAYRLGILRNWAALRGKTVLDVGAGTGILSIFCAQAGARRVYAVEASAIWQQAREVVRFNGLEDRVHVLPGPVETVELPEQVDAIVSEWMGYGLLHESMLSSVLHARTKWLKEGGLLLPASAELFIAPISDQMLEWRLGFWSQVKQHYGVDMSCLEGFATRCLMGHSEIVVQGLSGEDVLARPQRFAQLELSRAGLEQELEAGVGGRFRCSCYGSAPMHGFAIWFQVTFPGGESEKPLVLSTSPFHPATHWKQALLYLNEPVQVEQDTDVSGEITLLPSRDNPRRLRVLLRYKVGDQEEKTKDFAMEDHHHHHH
T1 sequence (Q99873 with tags, fused parts or gaps): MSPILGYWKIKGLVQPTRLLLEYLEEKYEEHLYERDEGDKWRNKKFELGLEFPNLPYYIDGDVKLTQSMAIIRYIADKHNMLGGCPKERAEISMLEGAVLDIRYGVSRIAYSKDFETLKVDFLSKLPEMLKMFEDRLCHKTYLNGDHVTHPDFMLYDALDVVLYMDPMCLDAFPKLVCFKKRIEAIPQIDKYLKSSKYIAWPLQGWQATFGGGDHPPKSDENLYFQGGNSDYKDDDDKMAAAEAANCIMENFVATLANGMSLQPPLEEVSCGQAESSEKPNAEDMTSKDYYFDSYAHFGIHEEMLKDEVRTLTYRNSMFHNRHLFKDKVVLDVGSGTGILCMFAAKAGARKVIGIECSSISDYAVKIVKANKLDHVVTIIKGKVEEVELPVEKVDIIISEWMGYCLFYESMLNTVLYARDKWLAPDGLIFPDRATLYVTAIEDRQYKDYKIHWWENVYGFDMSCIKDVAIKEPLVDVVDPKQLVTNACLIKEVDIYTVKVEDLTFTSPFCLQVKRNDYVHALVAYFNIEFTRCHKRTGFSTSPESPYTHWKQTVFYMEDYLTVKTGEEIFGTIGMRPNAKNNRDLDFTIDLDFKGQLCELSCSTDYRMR

Row | SMILES | IC50 (human PRMT1; [1]) | IC50 (human PRMT6; [2]) | IC50 (human PRMT1) | IC50 (human PRMT6; Biochemical IC50 PRMT6)
1 | COCCn1ncc(CN(C)CCN)c1-c1ccc(F)cc1 [Compound 6] | 3460 nM | 312 nM |  | 
2 | CCn1ncc(CN(C)CCNC)c1-c1ccc(F)cc1 [Compound 7] | 265 nM | 38.3 nM |  | 
3 | CCn1cc(CN(C)CCNC)c(-c2ccc(F)cc2)n1 [Compound 8] | 1180 nM | 287 nM |  | 
4 | CN(CCN)Cc1c[nH]nc1-c1ccc(OCC(F)(F)F)cc1 [Compound 96] | 4.41 nM | 7.09 nM |  | 
5 | CC(C)Oc1ccc(-c2n[nH]cc2CN(C)CCN)cc1F [Compound 97] | 2.6 nM | 7.35 nM |  | 
6 | CN(CCN)Cc1c[nH]nc1-c1ccc(C2CCOCC2)cc1 [Compound 98] | 5.84 nM | 15.4 nM |  | 
7 | CN(CCN)Cc1c[nH]nc1-c1ccc(F)cc1F [Compound 99] | 90.2 nM | 27.9 nM |  | 
8 | CN(CCN)Cc1n[nH]cc1-c1ccc(C#N)cc1 [Compound 100] | 12 nM | 11.2 nM |  | 
9 | CC(C)c1ccc(-c2c[nH]nc2CN(C)CCN)cc1 [Compound 101] | 20.3 nM | 136 nM |  | 
10 | CN(CCN)Cc1n[nH]cc1-c1ccc(Cl)cc1 [Compound 102] | 11.3 nM | 9.02 nM |  | 
11 | CN(CCN)Cc1n[nH]cc1-c1ccc(C(F)(F)F)cc1 [Compound 103] | 10.2 nM | 17 nM |  | 
12 | CN(CCN)Cc1n[nH]cc1-c1ccc(C2CC2)cc1 [Compound 104] | 15.7 nM | 45.3 nM |  | 
13 | CN(CCN)Cc1n[nH]cc1-c1ccc(OC(F)(F)F)cc1 [Compound 105] | 8.85 nM | 55.6 nM |  | 
14 | COc1ccc(-c2n[nH]cc2CN(C)CCN)c(F)c1 [Compound 107] | 44.1 nM | 15 nM |  | 
15 | Cc1ccc(-c2n[nH]cc2CN(C)CCN)c(F)c1 [Compound 108] | 31.3 nM | 9.49 nM |  | 
16 | COc1ccccc1-c1n[nH]cc1CN(C)CCN [Compound 109] | 244 nM | 217 nM |  | 
17 | Cc1cc(C#N)ccc1-c1n[nH]cc1CN(C)CCN [Compound 110] | 21.6 nM | 16.5 nM |  | 
18 | CN(CCN)Cc1c[nH]nc1-c1cc(F)cc(F)c1 [Compound 111] | 18.9 nM | 11.8 nM |  | 
19 | CC(=O)c1cccc(-c2n[nH]cc2CN(C)CCN)c1 [Compound 112] | 81 nM | 84.7 nM |  | 
20 | CN(CCN)Cc1c[nH]nc1-c1ccc(OC2CC2)cc1 [Compound 114] | 5.75 nM | 16.2 nM |  | 
21 | CC(O)c1ccc(-c2n[nH]cc2CN(C)CCN)cc1 (stereo not shown) [Compound 115] | 46 nM | 25.4 nM |  | 
22 | CN(CCN)Cc1c[nH]nc1-c1ccc(C2CC2)cc1 [Compound 116] | 4.84 nM | 7.3 nM |  | 
23 | CN(CCN)Cc1c[nH]nc1-c1ccc(C(F)(F)F)c(Cl)c1 [Compound 117] | 5.76 nM | 4.87 nM |  | 
24 | CN(CCN)Cc1c[nH]nc1-c1ccc(Cl)c(F)c1 [Compound 118] | 2.94 nM | 3.18 nM |  | 
25 | CN(CCN)Cc1n[nH]cc1-c1ccc(OC2CC2)cc1 [Compound 119] | 16.2 nM | 88 nM |  | 

Row | SMILES | IC50 (human PRMT1; [1]) | IC50 (human PRMT6; [2]) | IC50 (human PRMT1) | IC50 (human PRMT6; Biochemical IC50 PRMT6)
26 | CN(CCN)Cc1c[nH]nc1-c1cc(F)cc(Cl)c1 [Compound 121] | 10.7 nM | 7.48 nM |  | 
27 | CN(CCN)Cc1c[nH]nc1-c1cccc(Cl)c1 [Compound 122] | 24.3 nM | 8.99 nM |  | 
28 | CN(CCN)Cc1c[nH]nc1-c1cccc(Cl)c1F [Compound 123] | 43.9 nM | 17.1 nM |  | 
29 | CN(CCN)Cc1c[nH]nc1-c1ccc(F)c(Cl)c1 [Compound 124] | 13.7 nM | 7.15 nM |  | 
30 | COc1ccc(-c2n[nH]cc2CN(C)CCN)cc1Cl [Compound 125] | 8.38 nM | 6.65 nM |  | 
31 | Cc1ccc(-c2n[nH]cc2CN(C)CCN)cc1Cl [Compound 126] | 6.81 nM | 4.94 nM |  | 
32 | COc1cc(Cl)cc(-c2n[nH]cc2CN(C)CCN)c1 [Compound 127] | 46.1 nM | 14.1 nM |  | 
33 | Cc1c(F)cccc1-c1n[nH]cc1CN(C)CCN [Compound 129] | 121 nM | 52.8 nM |  | 
34 | COc1cccc(-c2n[nH]cc2CN(C)CCN)c1 [Compound 130] | 135 nM | 63.4 nM |  | 
35 | Cc1cccc(-c2n[nH]cc2CN(C)CCN)c1 [Compound 131] | 29.6 nM | 12.1 nM |  | 
36 | CN(CCN)Cc1c[nH]nc1-c1ccc(Cl)cc1F [Compound 132] | 23.9 nM | 9.91 nM |  | 
37 | Cc1cc(Cl)ccc1-c1n[nH]cc1CN(C)CCN [Compound 133] | 24.8 nM | 10.1 nM |  | 
38 | COc1ccc(-c2n[nH]cc2CN(C)CCN)cc1F [Compound 134] | 10.8 nM | 10.8 nM |  | 
39 | CN(CCN)Cc1c[nH]nc1-c1ccc(C(F)(F)F)cc1Cl [Compound 135] | 48.1 nM | 28.9 nM |  | 
40 | CCNC(=O)c1ccc(-c2n[nH]cc2CN(C)CCN)cc1 [Compound 136] | 27.5 nM | 12.8 nM |  | 
41 | CN(CCN)Cc1c[nH]nc1-c1cc(Cl)cc(Cl)c1 [Compound 137] | 19.2 nM | 8.42 nM |  | 
42 | CN(CCN)Cc1n[nH]cc1-c1ccc(OC(F)F)cc1 [Compound 138] | 21.2 nM | 44.5 nM |  | 
43 | CN(CCN)Cc1c[nH]nc1-c1ccccc1C#N [Compound 140] | 399 nM | 3010 nM |  | 
44 | CN(CCN)Cc1c[nH]nc1-c1ccc(C(F)(F)F)c(F)c1 [Compound 141] | 8.16 nM | 7.79 nM |  | 
45 | COc1cc(-c2n[nH]cc2CN(C)CCN)ccc1F [Compound 142] | 29.7 nM | 16.2 nM |  | 
46 | CCN(CC)C(=O)c1ccc(-c2n[nH]cc2CN(C)CCN)cc1 [Compound 143] | 116 nM | 107 nM |  | 
47 | CC(C)Oc1ccc(-c2c[nH]nc2CN(C)CCN)cc1F [Compound 144] | 5.79 nM | 49.1 nM |  | 
48 | CNCCN(C)Cc1cnn(C)c1-c1ccc(OC(C)C)cc1 [Compound 244, hydrochloride] | 8.68 nM | 45.1 nM | < 100 nM | < 100 nM
49 | CNCCN(C)Cc1c[nH]nc1-c1ccc(OC2COC2)cc1 [Compound 283] | 6.65 nM | 25.6 nM | < 100 nM | < 100 nM
50 | CNCCN(C)Cc1c[nH]nc1-c1ccc(OCC2CCOCC2)cc1 [Compound 284] | 13.3 nM | 40.5 nM | < 100 nM | < 100 nM
